Source: patent US20210254056A1, “IDENTIFICATION AND TARGETED MODULATION OF GENE SIGNALING NETWORKS” (CAMP4 THERAPEUTICS CORPORATION, priority 2017, published 2021)
Where a name gives a salt, the structure may show the parent alone.

Tested on: hepatocytes
Assay: RNA-seq of hepatocytes treated with Phase III failure compounds
Experimental: RNA-seq was performed to determine the effects of the compounds on hepatocytes.
Significance was determined by the criteria of FPKM≥0.5, a log 2(fold-change)≥1, and a […].

| SMILES | significant changes in gene expression (RNA-seq of Table 36, FPKM≥0.5, log 2(fold-change)≥1, q-value≤0.05) | significant modulation of expression of disease genes (RNA-seq, q≤0.05, hepatocytes, genes in the value or listed in the block) | log 2 fold change in expression of GCSH (RNA-seq, hepatocytes) | Number (#) of genes having significantly changed expression (RNA-seq, Phase III failure compounds, hepatocytes, significance: FPKM≥0.5, log 2(fold-change)≥1, q-value≥0.05 (so in the source)) | significant modulation of expression of any of the genes analyzed (RNA-seq, p≤0.05, hepatocytes) | effect on disease gene expression (RNA-seq, hepatocytes) |
| --- | --- | --- | --- | --- | --- | --- |
| CN[C@@]1(C)[C@@H]2CC[C@@H](C2)C1(C)C.Cl [TC-5214 (R-Mecamylamine hydrochloride), R-Mecamylamine hydrochloride] | not observed to cause any significant changes in gene expression | significantly (q≤0.05) modulate expression of GCSH | −1.31 | – | – | – |
| Cc1ccc2c(c1)c1c(n2CCc2ccc(C)nc2)CCN(C)C1 [Latrepirdine (dihydrochloride) (57), Latrepirdine] | – | – | – | 12 | not observed to significantly modulate expression | no effect on any disease gene |
